Species: Rattus norvegicus
Experiment: DrugMatrix - Regimen: Daily Repeat
Type: toxicity, organism-based, Sprague-Dawley
Design: regimen Daily Repeat, gender Male, age 6-8 weeks
Conditions: in vivo, po, 1100 mg/kg, route oral GAVAGE, dose level High, vehicle .5 % CMC; for ABSOLUTE BASOPHIL / ABSOLUTE EOSINOPHIL / ABSOLUTE LYMPHOCYTE / ABSOLUTE MONOCYTE / ABSOLUTE SEGMENTED NEUTROPHIL / BASOPHIL / EOSINOPHIL / ERYTHROCYTE COUNT / HEMATOCRIT / HEMOGLOBIN / LEUKOCYTE COUNT / LYMPHOCYTE / MEAN CORPUSCULAR HEMOGLOBIN / MEAN CORPUSCULAR HEMOGLOBIN CONCENTRATION / MEAN CORPUSCULAR VOLUME / MONOCYTE / NEUTROPHIL / NUCLEATED RED BLOOD CELLS / PLATELET COUNT: tissue Blood; for ALANINE AMINOTRANSFERASE / ALBUMIN / ALKALINE PHOSPHATASE / ASPARTATE AMINOTRANSFERASE / BLOOD UREA NITROGEN / CARBON DIOXIDE / CHLORIDE / CHOLESTEROL / CREATINE PHOSPHOKINASE / CREATININE / GLUCOSE / LACTATE DEHYDROGENASE / LIPASE / PHOSPHORUS / POTASSIUM / SODIUM / TOTAL BILIRUBIN / URIC ACID: tissue Plasma

SMILES: COc1cc(NS(=O)(=O)c2ccc(N)cc2)nc(OC)n1 [SULFADIMETHOXINE]
- ABSOLUTE BASOPHIL (72 h, time 3 day): 0 CELLS/uL
- ABSOLUTE EOSINOPHIL (72 h, time 3 day): 176 CELLS/uL
- ABSOLUTE LYMPHOCYTE (72 h, time 3 day): 8678 CELLS/uL
- ABSOLUTE MONOCYTE (72 h, time 3 day): 307.33 CELLS/uL
- ABSOLUTE SEGMENTED NEUTROPHIL (72 h, time 3 day): 1105.33 CELLS/uL
- BASOPHIL (72 h, time 3 day): 0%
- EOSINOPHIL (72 h, time 3 day): 1.67%
- ERYTHROCYTE COUNT (72 h, time 3 day): 5.56 x10E6/uL
- HEMATOCRIT (72 h, time 3 day): 35.03%
- HEMOGLOBIN (72 h, time 3 day): 13.43 G/DL
- LEUKOCYTE COUNT (72 h, time 3 day): 10.27 x10E3/uL
- LYMPHOCYTE (72 h, time 3 day): 84.67%
- MEAN CORPUSCULAR HEMOGLOBIN (72 h, time 3 day): 24.13 pg
- MEAN CORPUSCULAR HEMOGLOBIN CONCENTRATION (72 h, time 3 day): 38.37 G/DL
- MEAN CORPUSCULAR VOLUME (72 h, time 3 day): 62.93 fL
- MONOCYTE (72 h, time 3 day): 3%
- NEUTROPHIL (72 h, time 3 day): 10.67%
- NUCLEATED RED BLOOD CELLS (72 h, time 3 day): 0 /100WBC
- PLATELET COUNT (72 h, time 3 day): 1279 x10E3/uL
- ALANINE AMINOTRANSFERASE (72 h, time 3 day): 62.67 u/L
- ALBUMIN (72 h, time 3 day): 4.6 G/DL
- ALKALINE PHOSPHATASE (72 h, time 3 day): 393.67 u/L
- ASPARTATE AMINOTRANSFERASE (72 h, time 3 day): 75.67 u/L
- BLOOD UREA NITROGEN (72 h, time 3 day): 18 mg/dL
- CARBON DIOXIDE (72 h, time 3 day): 27.67 mmol/L
- CHLORIDE (72 h, time 3 day): 102.67 MEQ/L
- CHOLESTEROL (72 h, time 3 day): 67.67 mg/dL
- CREATINE PHOSPHOKINASE (72 h, time 3 day): 189.67 u/L
- CREATININE (72 h, time 3 day): 0.32 mg/dL
- GLUCOSE (72 h, time 3 day): 153.33 mg/dL
- LACTATE DEHYDROGENASE (72 h, time 3 day): 129.33 u/L
- LIPASE (72 h, time 3 day): 9.33 u/L
- PHOSPHORUS (72 h, time 3 day): 12.17 mg/dL
- POTASSIUM (72 h, time 3 day): 6.03 MEQ/L
- SODIUM (72 h, time 3 day): 145.53 MEQ/L
- TOTAL BILIRUBIN (72 h, time 3 day): 0.17 mg/dL
- URIC ACID (72 h, time 3 day): 1.37 mg/dL
- ABSOLUTE BASOPHIL (120 h, time 5 day): 0 CELLS/uL
- ABSOLUTE EOSINOPHIL (120 h, time 5 day): 186.33 CELLS/uL
- ABSOLUTE LYMPHOCYTE (120 h, time 5 day): 11316.33 CELLS/uL
- ABSOLUTE MONOCYTE (120 h, time 5 day): 266.33 CELLS/uL
- ABSOLUTE SEGMENTED NEUTROPHIL (120 h, time 5 day): 1431 CELLS/uL
- BASOPHIL (120 h, time 5 day): 0%
- EOSINOPHIL (120 h, time 5 day): 1.33%
- ERYTHROCYTE COUNT (120 h, time 5 day): 5.62 x10E6/uL
- HEMATOCRIT (120 h, time 5 day): 35.53%
- HEMOGLOBIN (120 h, time 5 day): 13.53 G/DL
- LEUKOCYTE COUNT (120 h, time 5 day): 13.2 x10E3/uL
- LYMPHOCYTE (120 h, time 5 day): 86%
- MEAN CORPUSCULAR HEMOGLOBIN (120 h, time 5 day): 24.1 pg
- MEAN CORPUSCULAR HEMOGLOBIN CONCENTRATION (120 h, time 5 day): 38.1 G/DL
- MEAN CORPUSCULAR VOLUME (120 h, time 5 day): 63.17 fL
- MONOCYTE (120 h, time 5 day): 2%
- NEUTROPHIL (120 h, time 5 day): 10.67%
- NUCLEATED RED BLOOD CELLS (120 h, time 5 day): 0 /100WBC
- PLATELET COUNT (120 h, time 5 day): 1313.67 x10E3/uL
- ALANINE AMINOTRANSFERASE (120 h, time 5 day): 48.67 u/L
- ALBUMIN (120 h, time 5 day): 4.57 G/DL
- ALKALINE PHOSPHATASE (120 h, time 5 day): 294.67 u/L
- ASPARTATE AMINOTRANSFERASE (120 h, time 5 day): 97 u/L
- BLOOD UREA NITROGEN (120 h, time 5 day): 21.67 mg/dL
- CARBON DIOXIDE (120 h, time 5 day): 25.33 mmol/L
- CHLORIDE (120 h, time 5 day): 102.33 MEQ/L
- CHOLESTEROL (120 h, time 5 day): 65 mg/dL
- CREATINE PHOSPHOKINASE (120 h, time 5 day): 679 u/L
- CREATININE (120 h, time 5 day): 0.26 mg/dL
- GLUCOSE (120 h, time 5 day): 151.67 mg/dL
- LACTATE DEHYDROGENASE (120 h, time 5 day): 445 u/L
- LIPASE (120 h, time 5 day): 8.67 u/L
- PHOSPHORUS (120 h, time 5 day): 11.87 mg/dL
- POTASSIUM (120 h, time 5 day): 5.23 MEQ/L
- SODIUM (120 h, time 5 day): 144.1 MEQ/L
- TOTAL BILIRUBIN (120 h, time 5 day): 0.1 mg/dL
- URIC ACID (120 h, time 5 day): 1.4 mg/dL

— ChEMBL document CHEMBL3885881, “DrugMatrix”
